{"source": "patent US5639902A", "about": "“(Cyclohexyl)alkene compounds” (Adir et Compagnie, priority 1993, dated 1997)", "key": {"LTB4 receptors": {"biological_target": "T1, LTB4 receptors (Homo sapiens, UniProt Q15722)", "T1 construct": "Human PMN are isolated from heparinized venous blood of healthy donors; endogenous in cells; host or cells: human polymorphonuclear leukocytes (PMN) from venous blood of healthy donors", "T1 sequence (Q15722 whole entry)": "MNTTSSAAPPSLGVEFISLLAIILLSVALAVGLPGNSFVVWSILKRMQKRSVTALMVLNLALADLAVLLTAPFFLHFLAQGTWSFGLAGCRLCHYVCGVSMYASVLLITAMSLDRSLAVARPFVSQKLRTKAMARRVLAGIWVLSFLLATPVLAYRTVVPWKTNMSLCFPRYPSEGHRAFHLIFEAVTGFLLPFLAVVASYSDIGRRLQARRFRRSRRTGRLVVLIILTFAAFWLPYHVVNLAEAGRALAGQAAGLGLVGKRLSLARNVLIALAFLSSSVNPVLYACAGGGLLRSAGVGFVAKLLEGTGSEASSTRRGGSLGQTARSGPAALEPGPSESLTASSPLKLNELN", "assay": "Study of binding to LTB4 (Leukotriene B4) receptors on human PMN, displacement of [^3 H]LTB4", "conditions": "for IC50: human PMN (10^6 cells), 1 nM [^3 H]LTB4, 20 min at 4° C., read-out: 50% inhibition (IC50) of the binding of [^3 H]LTB4", "protocol": "Human PMN are isolated from heparinized venous blood of healthy donors by sedimentation on dextran T500. The supernatant is centrifuged on Ficoll Paque®, and the residual erythrocytes are removed by hypotonic lysis. The PMN are washed with Hank's isotonic saline solution (HBSS) free from Ca^2+ and Mg^2+.\n[…] is verified by the trypan blue exclusion technique.\nStudy of binding to LTB4 receptors\nBinding to PMN is carried out in HBSS free from Ca^2+ and Mg^2+ containing 5 mM HEPES buffer.\nThe PMN (10^6 cells) are incubated for 20 min at 4° C. with 1 nM [^3 H]LTB4 in the presence or absence of non-radioactive LTB4 or of the compounds of the invention at various concentrations."}, "human PMN": {"tested_on": "human PMN", "assay": "Inhibition of LTB4-induced chemotaxis of human PMN in vitro (BOYDEN-KELLER chambers)", "format": "cell-based", "protocol": "STUDY OF THE ACTIVITY OF THE COMPOUNDS OF THE INVENTION WITH RESPECT TO THE CHEMOTAXIS OF HUMAN PMN IN VITRO\nPMN incubated in HBSS without Ca^2+ or Mg^2+ are labeled with ^51 chromium (1 μL Ci/10^6 cells) for 1 hour at 37° C. and then washed twice with HBSS.\nThe PMN are then resuspended at a concentration of 10^7 cells/cm^3 in Hank's buffer with the addition of 1% bovine albumin. LTB4 and the compounds of the invention dissolved in Hank buffer are introduced into the lower part of BOYDEN-KELLER chambers, two cellulose nitrate filters (Millipore, 3 μm) are placed on each well and the upper part of the chambers is filled with the cell suspension (Methods Enzymol 1988, vol. 162, pp 59-64).\nThe chambers are incubated for 150 min at 37° C. under an atmosphere of 95% humidified air and 5% CO2.\nThe radioactivity of the lower filter is measured with a scintillation spectrometer (Beckman LS 3801)."}, "[1]": {"tested_on": "LTB4-induced contraction of parenchymatous strips of guinea pig lung", "assay": "LTB4-induced contraction of isolated parenchymatous lung strips", "design": "species or system DUNKIN HARTLEY guinea pig", "conditions": "contraction stimulated with 30 nM LTB4, compound added 2 min before; read-out: 50% inhibition of the contraction (IC50)", "protocol": "STUDY OF THE ACTIVITY OF THE COMPOUNDS OF THE INVENTION WITH RESPECT TO THE CONTRACTION OF PARENCHYMATOUS LUNG STRIPS\nLTB4 has a contracting effect on isolated parenchymatous strips of guinea pig lung. The antagonist activity of the compounds of the invention with respect to this LTB4 -induced contraction is tested.\nParenchymatous strips of DUNKIN HARTLEY guinea pig lung are cut and placed in baths containing Tyrode's solution oxygenated with a stream of gas (95% O2 /5% CO2). The strips are connected to a polygraph (GOULD Statham) with an isometric tension of 400 mg. After 1 h of equilibrium, 1 μM mepyramine and 10 μM atroprine are added to the Tyrode's solution, and the compounds of the invention are tested for their antagonist activities. The contractile responses are recorded over 5 min. The antagonist activities of the compounds of the invention are tested by adding these compounds to the bath 2 min before stimulation of contraction with 30 nM LTB4."}, "[2]": {"tested_on": "swelling of the ear of a mouse", "assay": "Topical inflammatory model (psoriasis), arachidonic acid ear swelling", "format": "in vivo", "conditions": "dose of 20 mg/ear, arachidonic acid 2 mg, 60 min", "protocol": "STUDY OF THE ACTIVITY OF THE COMPOUNDS OF THE INVENTION WITH RESPECT TO A TOPICAL INFLAMMATORY MODEL (psoriasis)\nThe present test enables the anti-inflammatory activity of the compounds of the invention with respect to such dermal lesions to be tested.\n(Current Test Protocols-Pharmacology Service-Panlabs-June 92).\nArachidonic acid (2 mg in 20 μl of an acetone/pyridine/water (7:2:1) mixture) is applied topically to the anterior and posterior surfaces of the right ear of a mouse 30 min after a similar application of the test compound or of the vehicle (20 μl). The swelling of the ear is measured by a Dyer type gauge after 60 min as an index of the inflammation.\nThe percentage inhibition is calculated according to the formula: Ic-lt/Ic×100, in which Ic and It represent the increase in thickness (in mm) of the ear in the control mouse and in the treated mouse, respectively."}, "[3]": {"assay": "Solubility of the salt in water", "format": "physicochemical", "conditions": "sodium salt"}, "[4]": {"assay": "Stability of the solution of the salt", "format": "physicochemical", "conditions": "sodium salt, aqueous solution"}}, "data": [{"smiles": "O=C(O)C[C@]1(O)CCC[C@H](/C=C/C(O)CCCCc2ccccc2)C1", "note": "(relative stereo) [Example 7, (1S*,3S*)-1-HYDROXY-3-[(3R*S*,E)-3-HYDROXY-7-PHENYL-1-HEPTEN-1-YL]-1-CYCLOHEXANE-ACETIC ACID]", "values": [{"measurement": "IC50", "setting": "LTB4 receptors", "result": 200, "unit": "nM"}, {"measurement": "inhibition of the action of LTB4 on cell migration (in words)", "setting": "human PMN; up to a concentration of 50 μM", "result": "total inhibition"}, {"measurement": "IC50", "setting": "[1]", "result": 40, "unit": "nM"}, {"measurement": "decrease in the volume of the ear", "setting": "[2]", "result": 30, "unit": "%"}]}, {"smiles": "CN(C)C(=O)C[C@@]1(O)CCC[C@H](/C=C/C(O)CCCCc2ccccc2)C1", "note": "(single isomer, unassigned) [Example 71, (1R*,3S*,E)-1-HYDROXY-3-[(3R*S*,E)-3-HYDROXY-7-PHENYL-1-HEPTEN-1-YL]CYCLOHEXANE-1-(N,N-DIMETHYLACETAMIDE)]", "values": [{"measurement": "IC50", "setting": "LTB4 receptors", "result": 2000, "unit": "nM"}]}, {"smiles": "O=C(O)C[C@]1(O)CCC[C@H](/C=C/C(O)CCCCc2ccccc2)C1", "note": "(relative stereo) [Sodium (1S*,3S*)-1-hydroxy-3-[(3R*S*,E)-3-hydroxy-7-phenyl-1-hepten-1-yl]-1-cyclohexaneacetate]", "values": [{"measurement": "solubility", "setting": "[3]", "result": 100, "unit": "mg/mL"}, {"measurement": "Stability of the solution", "setting": "[4]", "result": "more than 18 months"}]}, {"smiles": "CN(C)C(=O)C[C@]1(O)CCC[C@H](/C=C/C(O)CCCCc2ccccc2)C1", "note": "(single isomer, unassigned) [Example 69, (1S*,3S*)-1-HYDROXY-3-[(3R*S*,E)-3-HYDROXY-7-PHENYL-1-HEPTEN-1-YL]CYCLOHEXANE-1-(N,N-DIMETHYLACETAMIDE)]", "values": [{"measurement": "IC50", "setting": "LTB4 receptors", "result": 500, "unit": "nM"}]}, {"smiles": "CCCCC/C=C\\C[C@@H](O)/C=C/C=C/C=C\\[C@@H](O)CCCC(=O)O", "note": "[LTB4, Leukotriene B4, reference compound]", "values": [{"measurement": "displacement of [^3 H]LTB4 from its specific binding sites (in words)", "setting": "LTB4 receptors; human PMN, [^3 H]LTB4 (1 nM), increasing doses of unlabeled LTB4", "result": "dose-dependent displacement"}, {"measurement": "effect on the spontaneous migration of human PMN (in words)", "setting": "human PMN; LTB4 0.1 to 100 nM, BOYDEN-KELLER chambers", "result": "causes an activation of the spontaneous migration"}]}]}
